# Test results reported in US12643887B2, “Heterocyclic derivatives with cardiomyocyte proliferation activity for treatment of heart diseases” (Tongji University, priority 2019, dated 2026).
# Legend:
# Assay type in all cases: biochemical
# [1] = target: T1, human CIT (Homo sapiens, UniProt O14578); assay: CIT enzyme assay (ADP-Glo); conditions: ADP-Glo, ATP 5 μM; read-out: CIT IC50
# T1 construct: Recombinant human CIT (1-499); GST (N); purchased SignalChem C52-11G; host or cells: Sf9 insect cells
# Procedure: The ability of compounds to inhibit human CIT kinase activities was determined using a commercially available ADP-Glo™ Kinase Assay kit (Promega, Cat #V9102) according to the manufacturer's protocol.
# (§1) Recombinant human CIT (1-499) (expressed in Sf9 insect cells with an N-terminal GST tag) was purchased from SignalChem (Cat #C52-11G). Recombinant full length human MBP (expressed in E. Coli cells with an N-terminal GST tag) was purchased from SignalChem (Cat #M42-54G). This assay, run in a 384-well plate format, is a generic method for measuring kinase activities using an ADP-Glo Kinase Assay Kit. The basic assay procedure involves two steps: (1) Enzymatic step: inhibitors are incubated with the kinase and then ATP (included in the ADP-Glo Kinase Assay Kit) and the MBP protein are added to start the enzymatic reaction; (2) Detection step: after the kinase reaction, first ADP-Glo™ Reagent is added to terminate the kinase reaction and deplete the remaining ATP. Second, the Kinase Detection Reagent is added to simultaneously convert ADP to ATP and allow the newly synthesized ATP to be measured using a luciferase/luciferin reaction. The light generated is measured using a luminometer.
# (§2) Briefly, CIT (20 nM) in the enzymatic buffer solutions (40 mM Tris, pH 7.5, 20 mM MgCl2, 0.1 mg/ml BSA, 50 μM DTT) were mixed with various concentrations of inhibitors (dissolved in 100% DMSO). These solutions were incubated for 30 minutes at 25° C., and subsequently a mixture of substrate peptide and ATP was added with the final peptide and ATP concentrations at 0.05 mg/ml and 5 μM, respectively. The final reaction mixture of enzyme-substrate-ATP-compound was incubated for 90 minutes at 25° C.
# (§3) Afterwards ADP-Glo™ Reagent was added and the mixture was incubated at 25° C. for 60 minutes. Then Kinase Detection Reagent was added, and the final mixture was incubated at 25° C. for 60 minutes. The luminescence signal of the final solution was measured on an Envision instrument (PerkinElmer). The percent (%) inhibition at each concentration of a compound is calculated relative to the luminescence signal in the Max and Min control wells contained within each assay plate. […] The concentrations and percent inhibition values for a test compound are plotted and the concentration of the compound required to achieve 50% inhibition (IC50) is determined with a four-parameter logistic dose response equation.
# [2] = target: T2, human HIPK2 (Homo sapiens, UniProt Q9H2X6); assay: HIPK2 enzyme assay (ADP-Glo); conditions: ADP-Glo, ATP 5 μM; read-out: HIPK2 IC50
# T2 construct: Recombinant human HIPK2 (1-640); GST (N); purchased SignalChem H04-11BG; host or cells: Sf9 insect cells
# Procedure: The ability of compounds to inhibit human HIPK2 kinase activities was determined using a commercially available ADP-Glo™ Kinase Assay kit (Promega, Cat #V9102) according to the manufacturer's protocol.
# as §1, with “HIPK2 (1-640)” for “CIT (1-499)”, “#H04-11BG).” for “#C52-11G).”
# as §2, with “HIPK2 (1” for “CIT (20”
# as §3
# [3] = target: T3, human DYRK1A (Homo sapiens, UniProt Q13627); assay: DYRK1A enzyme assay (ADP-Glo); conditions: ADP-Glo, ATP 60 μM; read-out: DYRK1A IC50
# T3 construct: Recombinant full-length DYRK1A (expressed in E. Coli cells with an N-terminal GST tag); GST (N); purchased SignalChem D09-10G; host or cells: E. coli
# Procedure: The ability of compounds to inhibit human DYRK1A kinase activities was determined using a commercially available ADP-Glo™ Kinase Assay kit (Promega, Cat #V9102) according to the manufacturer's protocol.
# as §1, with “full-length DYRK1A” for “human CIT (1-499) (expressed in Sf9 insect cells with an N-terminal GST tag) was purchased from SignalChem (Cat #C52-11G). Recombinant full length human MBP”, “#D09-10G). The DYRK substrate peptide (DYRKtide, sequence: […]) was purchased from SignalChem (Cat #D96-58).” for “#M42-54G).”, “DYRKtide” for “MBP protein”
# as §2, with “Briefly, DYRK1A (3” for “Briefly, CIT (20”, “at 20 μM” for “at 0.05 mg/ml”, “and 60” for “and 5”, “for 60” for “for 90”
# as §3, with “added” for “added,”
# T2 sequence (Q9H2X6 1-640): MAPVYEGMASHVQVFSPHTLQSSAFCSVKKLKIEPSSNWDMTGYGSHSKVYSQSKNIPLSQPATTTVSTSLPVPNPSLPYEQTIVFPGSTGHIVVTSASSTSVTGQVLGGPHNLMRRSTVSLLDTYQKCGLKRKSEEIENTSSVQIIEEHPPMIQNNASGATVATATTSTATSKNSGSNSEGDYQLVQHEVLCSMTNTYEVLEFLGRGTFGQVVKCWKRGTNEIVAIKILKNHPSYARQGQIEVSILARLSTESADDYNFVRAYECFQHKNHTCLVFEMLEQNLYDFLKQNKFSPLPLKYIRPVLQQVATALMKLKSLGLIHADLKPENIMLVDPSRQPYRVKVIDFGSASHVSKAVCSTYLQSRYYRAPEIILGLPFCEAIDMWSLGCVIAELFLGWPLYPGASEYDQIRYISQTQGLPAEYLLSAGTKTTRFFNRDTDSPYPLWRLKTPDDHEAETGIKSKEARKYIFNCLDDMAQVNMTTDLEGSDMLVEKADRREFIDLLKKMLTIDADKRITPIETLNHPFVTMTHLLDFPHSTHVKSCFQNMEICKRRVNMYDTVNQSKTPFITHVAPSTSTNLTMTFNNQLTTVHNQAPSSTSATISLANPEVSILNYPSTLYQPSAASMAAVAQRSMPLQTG
# T1 sequence (O14578 1-499): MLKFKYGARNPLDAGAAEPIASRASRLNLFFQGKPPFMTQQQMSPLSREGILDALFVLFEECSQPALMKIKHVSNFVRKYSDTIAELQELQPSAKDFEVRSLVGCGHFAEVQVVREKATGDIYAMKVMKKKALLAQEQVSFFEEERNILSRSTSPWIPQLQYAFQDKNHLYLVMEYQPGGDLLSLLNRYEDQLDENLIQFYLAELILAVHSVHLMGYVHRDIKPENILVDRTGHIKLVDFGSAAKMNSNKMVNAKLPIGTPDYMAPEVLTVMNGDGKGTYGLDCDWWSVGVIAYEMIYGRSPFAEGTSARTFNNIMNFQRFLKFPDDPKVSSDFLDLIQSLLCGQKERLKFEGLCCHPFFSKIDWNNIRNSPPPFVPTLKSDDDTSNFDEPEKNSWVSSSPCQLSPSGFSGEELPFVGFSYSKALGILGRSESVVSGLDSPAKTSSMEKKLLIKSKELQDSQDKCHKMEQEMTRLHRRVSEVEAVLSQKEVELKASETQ
SMILES,IC50 [1],IC50 [2],IC50 [3]
"O=C1NC(Nc2ccccc2)=N/C1=C\c1ccc2ncsc2c1 [Example 6, (Z)-5-(benzo[d]thiazol-6-ylmethylene)-2-(phenylamino)-3,5-dihydro-4H-imidazol-4-one]",100 to 1000 nM,100 to 1000 nM,
"Cn1cnc2cc(NC3=N/C(=C\c4ccc5ncsc5c4)C(=O)N3)ccc21 [Example 61, (Z)-5-(benzo[d]thiazol-6-ylmethylene)-2-((1-methyl-1H-benzo[d]imidazol-5-yl)amino)-3,5-dihydro-4H-imidazol-4-one]",,100 to 1000 nM,< 0.1 µM
"O=C1NC(Nc2ccc3ncsc3c2)=N/C1=C\c1ccc2cc[nH]c2c1 [Example 63, (Z)-5-((1H-indol-6-yl)methylene)-2-(benzo[d]thiazol-6-ylamino)-3,5-dihydro-4H-imidazol-4-one]",,> 10000 nM,> 10 µM
"O=C1NC(Nc2ccc3[nH]ccc3c2)=N/C1=C\c1ccc2ncsc2c1 [Example 69, (Z)-2-((1H-indol-5-yl)amino)-5-(benzo[d]thiazol-6-ylmethylene)-3,5-dihydro-4H-imidazol-4-one]",,< 100 nM,< 0.1 µM
"Cn1cnc2cc(/C=C3\N=C(Nc4ccccc4)NC3=O)ccc21 [Example 71, (Z)-5-((1-methyl-1H-benzo[d]imidazol-5-yl)methylene)-2-(phenylamino)-3,5-dihydro-4H-imidazol-4-one]",,> 10000 nM,> 10 µM
"O=C1NC(Nc2ccccc2)=N/C1=C\c1ccc2sccc2c1 [Example 72, (Z)-5-(benzo[b]thiophen-5-ylmethylene)-2-(phenylamino)-3,5-dihydro-4H-imidazol-4-one]",,> 10000 nM,> 10 µM
"O=C1NC(Nc2ccccc2)=N/C1=C\c1ccc2cc[nH]c2c1 [Example 73, (Z)-5-((1H-indol-6-yl)methylene)-2-(phenylamino)-3,5-dihydro-4H-imidazol-4-one]",,> 10000 nM,> 10 µM
"O=C1NC(Nc2ccc3ncsc3c2)=N/C1=C\c1ccc2c(c1)OCCO2 [Example 74, (Z)-2-(benzo[d]thiazol-6-ylamino)-5-((2,3-dihydrobenzo[b][1,4]dioxin-6-yl)methylene)-3,5-dihydro-4H-imidazol-4-one]",,> 10000 nM,> 10 µM
"Cn1cnc2ccc(/C=C3\N=C(Nc4ccc5ncsc5c4)NC3=O)cc21 [Example 75, (Z)-2-(benzo[d]thiazol-6-ylamino)-5-((1-methyl-1H-benzo[d]imidazol-6-yl)methylene)-3,5-dihydro-4H-imidazol-4-one]",,< 100 nM,< 0.1 µM
"O=C1NC(Nc2ccc3ncsc3c2)=N/C1=C\c1ccc2nc[nH]c2c1 [Example 76, (Z)-5-((1H-benzo[d]imidazol-6-yl)methylene)-2-(benzo[d]thiazol-6-ylamino)-3,5-dihydro-4H-imidazol-4-one]",,100 to 1000 nM,< 0.1 µM
"Cn1ncc2cc(/C=C3\N=C(Nc4ccccc4)NC3=O)ccc21 [Example 77, (Z)-5-((1-methyl-1H-indazol-5-yl)methylene)-2-(phenylamino)-3,5-dihydro-4H-imidazol-4-one]",,> 10000 nM,< 0.1 µM
"Cn1ncc2cc(/C=C3\N=C(Nc4ccc5ncsc5c4)NC3=O)ccc21 [Example 78, (Z)-2-(benzo[d]thiazol-6-ylamino)-5-((1-methyl-1H-indazol-5-yl)methylene)-3,5-dihydro-4H-imidazol-4-one]",,> 10000 nM,> 10 µM
"Cn1ncc2ccc(/C=C3\N=C(Nc4ccccc4)NC3=O)cc21 [Example 79, 5-((1-methyl-1H-indazol-6-yl)methylene)-2-(phenylamino)-3,5-dihydro-4H-imidazol-4-one]",,> 10000 nM,> 10 µM
"Cn1ncc2ccc(/C=C3\N=C(Nc4ccc5ncsc5c4)NC3=O)cc21 [Example 80, (Z)-2-(benzo[d]thiazol-6-ylamino)-5-((1-methyl-1H-indazol-6-yl)methylene)-3,5-dihydro-4H-imidazol-4-one]",,> 10000 nM,> 10 µM
"O=C1NC(Nc2ccc3c(c2)OCCO3)=N/C1=C\c1ccc2ncsc2c1 [Example 81, (Z)-5-(benzo[d]thiazol-6-ylmethylene)-2-((2,3-dihydrobenzo[b][1,4]dioxin-6-yl)amino)-3,5-dihydro-4H-imidazol-4-one]",,< 100 nM,< 0.1 µM
"O=C1NC(Nc2ccc3ncsc3c2)=NC1Cc1ccc2ncsc2c1 (stereo not drawn) [Example 102, 2-(benzo[d]thiazol-6-ylamino)-5-(benzo[d]thiazol-6-ylmethyl)-3,5-dihydro-4H-imidazol-4-one]",,100 to 1000 nM,1 to 10 µM
"O=C1NC(Nc2ccc3nc(Nc4ccccc4)sc3c2)=N/C1=C\c1ccc2ncsc2c1 [Example 104, (Z)-5-(benzo[d]thiazol-6-ylmethylene)-2-((2-(phenylamino)benzo[d]thiazol-6-yl)amino)-3,5-dihydro-4H-imidazol-4-one]",,1000 to 10000 nM,1 to 10 µM
"O=C1NC(N(CC2CC2)c2ccc3ncsc3c2)=N/C1=C\c1ccc2ncsc2c1 [Example 105, (Z)-2-(benzo[d]thiazol-6-yl(cyclopropylmethyl)amino)-5-(benzo[d]thiazol-6-ylmethylene)-3,5-dihydro-4H-imidazol-4-one]",,> 10000 nM,> 10 µM
